The record followed here is ChEMBL document CHEMBL3217672, “Optimization of a series of dipeptides with a P3 -neopentyl asparagine residue as non-covalent inhibitors of the chymotrypsin-like activity of human 20S proteasome” (Medchemcomm, 2012).

The source made the active and inactive calls. The rule behind the calls is not given here.

Test [1] in a line: Cytotoxicity against human Calu6 cells after 72 hrs by luminescence assay. The format is functional. Particulars: Calu-6, 72 h, read-out: LC50 (the source's name).
Test [2] deals with Cathepsin B (Homo sapiens) (UniProt P07858). Description: Inhibition of human purified cathepsin B at 100 uM.
In test [3] the target is Procathepsin L (Homo sapiens) (UniProt P07711). Description: Inhibition of human purified cathepsin L at 100 uM.
Procathepsin L (Homo sapiens), sequence (P07711 114-333 limits assumed): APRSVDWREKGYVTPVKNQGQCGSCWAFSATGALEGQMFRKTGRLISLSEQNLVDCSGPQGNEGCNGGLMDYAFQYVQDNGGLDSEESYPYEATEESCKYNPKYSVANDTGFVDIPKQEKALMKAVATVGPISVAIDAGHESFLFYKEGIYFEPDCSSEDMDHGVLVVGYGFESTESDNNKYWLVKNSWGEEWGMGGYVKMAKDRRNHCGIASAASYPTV
The target of test [4] is T1, Coagulation factor XII (Homo sapiens) (UniProt P00748).
T1 sequence (whole entry): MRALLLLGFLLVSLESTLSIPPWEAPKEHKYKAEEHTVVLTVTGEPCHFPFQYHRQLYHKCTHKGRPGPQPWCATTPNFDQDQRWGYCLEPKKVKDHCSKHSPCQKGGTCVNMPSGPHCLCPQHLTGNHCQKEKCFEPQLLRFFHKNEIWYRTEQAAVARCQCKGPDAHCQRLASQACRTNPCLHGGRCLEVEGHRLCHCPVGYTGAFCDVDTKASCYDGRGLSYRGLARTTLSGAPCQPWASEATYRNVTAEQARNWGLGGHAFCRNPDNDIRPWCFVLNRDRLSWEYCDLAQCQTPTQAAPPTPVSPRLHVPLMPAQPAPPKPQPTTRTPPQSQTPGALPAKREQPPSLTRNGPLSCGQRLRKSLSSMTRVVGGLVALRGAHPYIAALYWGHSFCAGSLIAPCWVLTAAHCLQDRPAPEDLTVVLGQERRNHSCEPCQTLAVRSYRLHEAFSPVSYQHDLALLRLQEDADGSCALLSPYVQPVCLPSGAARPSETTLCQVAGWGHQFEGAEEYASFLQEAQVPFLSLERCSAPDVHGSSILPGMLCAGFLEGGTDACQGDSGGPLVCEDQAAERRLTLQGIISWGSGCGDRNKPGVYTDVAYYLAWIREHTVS
Description: Inhibition of human purified coagulation factor 12a at 100 uM.

Test [5] is filed under the species Homo sapiens. Kind of test: Inhibition of human purified chymotrypsin at 100 uM.
Test [6] is filed under the species Homo sapiens. Kind of test: Inhibition of human purified elastase at 100 uM.
In test [7] the target is Plasminogen (Homo sapiens) (UniProt P00747). Description: Inhibition of human purified plasmin at 100 uM.
Plasminogen (Homo sapiens), sequence (P00747 97-580 limits assumed): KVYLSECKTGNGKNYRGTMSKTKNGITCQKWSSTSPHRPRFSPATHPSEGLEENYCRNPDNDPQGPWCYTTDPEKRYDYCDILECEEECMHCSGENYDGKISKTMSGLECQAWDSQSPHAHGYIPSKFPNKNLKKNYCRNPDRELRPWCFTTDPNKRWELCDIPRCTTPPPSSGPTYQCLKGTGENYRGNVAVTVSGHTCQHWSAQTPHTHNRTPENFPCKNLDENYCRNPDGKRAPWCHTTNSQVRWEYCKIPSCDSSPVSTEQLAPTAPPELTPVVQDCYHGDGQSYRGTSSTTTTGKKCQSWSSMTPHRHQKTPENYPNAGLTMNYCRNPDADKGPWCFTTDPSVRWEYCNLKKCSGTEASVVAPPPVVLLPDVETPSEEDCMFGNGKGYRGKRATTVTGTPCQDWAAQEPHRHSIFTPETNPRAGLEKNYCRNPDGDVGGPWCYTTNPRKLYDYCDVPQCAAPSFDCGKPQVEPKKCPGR
Plasminogen (Homo sapiens), sequence (P00747 581-810 limits assumed): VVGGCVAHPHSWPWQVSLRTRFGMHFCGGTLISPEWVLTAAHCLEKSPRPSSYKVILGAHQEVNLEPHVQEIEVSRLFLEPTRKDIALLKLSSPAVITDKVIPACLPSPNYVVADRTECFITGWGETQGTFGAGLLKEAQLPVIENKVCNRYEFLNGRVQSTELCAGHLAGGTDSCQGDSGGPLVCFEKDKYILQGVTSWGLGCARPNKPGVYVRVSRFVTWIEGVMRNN
Test [8] concerns the target Prothrombin (Homo sapiens) (UniProt P00734). Description: Inhibition of human purified thrombin at 100 uM.
In test [9] the target is Tissue-type plasminogen activator (Homo sapiens) (UniProt P00750). Description: Inhibition of human purified tissue-type plasminogen activator at 100 uM.
Tissue-type plasminogen activator (Homo sapiens), sequence (P00750 36-562 limits assumed): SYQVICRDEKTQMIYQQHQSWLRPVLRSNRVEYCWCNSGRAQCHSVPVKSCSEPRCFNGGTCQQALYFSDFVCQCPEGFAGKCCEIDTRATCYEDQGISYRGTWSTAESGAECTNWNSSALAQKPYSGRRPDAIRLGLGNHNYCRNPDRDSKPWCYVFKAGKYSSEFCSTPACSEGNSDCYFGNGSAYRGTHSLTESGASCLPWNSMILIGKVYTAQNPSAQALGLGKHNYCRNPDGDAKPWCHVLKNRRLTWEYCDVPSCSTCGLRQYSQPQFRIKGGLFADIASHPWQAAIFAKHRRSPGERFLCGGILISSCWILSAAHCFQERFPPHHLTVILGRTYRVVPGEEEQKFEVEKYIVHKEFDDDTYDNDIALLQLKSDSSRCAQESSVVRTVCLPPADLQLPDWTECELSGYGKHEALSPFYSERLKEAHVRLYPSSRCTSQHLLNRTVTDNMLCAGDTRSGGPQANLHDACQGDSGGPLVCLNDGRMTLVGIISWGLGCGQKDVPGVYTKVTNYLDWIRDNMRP
Another test has as its target Trypsin (Homo sapiens) (UniProt P07477+P07478+P35030). Kind of test: Inhibition of human purified trypsin at 100 uM. The test is classed as protein assay.
Test [10] has as its target T2, Calpain-1 catalytic subunit (Homo sapiens) (UniProt P07384).
T2 sequence (whole entry): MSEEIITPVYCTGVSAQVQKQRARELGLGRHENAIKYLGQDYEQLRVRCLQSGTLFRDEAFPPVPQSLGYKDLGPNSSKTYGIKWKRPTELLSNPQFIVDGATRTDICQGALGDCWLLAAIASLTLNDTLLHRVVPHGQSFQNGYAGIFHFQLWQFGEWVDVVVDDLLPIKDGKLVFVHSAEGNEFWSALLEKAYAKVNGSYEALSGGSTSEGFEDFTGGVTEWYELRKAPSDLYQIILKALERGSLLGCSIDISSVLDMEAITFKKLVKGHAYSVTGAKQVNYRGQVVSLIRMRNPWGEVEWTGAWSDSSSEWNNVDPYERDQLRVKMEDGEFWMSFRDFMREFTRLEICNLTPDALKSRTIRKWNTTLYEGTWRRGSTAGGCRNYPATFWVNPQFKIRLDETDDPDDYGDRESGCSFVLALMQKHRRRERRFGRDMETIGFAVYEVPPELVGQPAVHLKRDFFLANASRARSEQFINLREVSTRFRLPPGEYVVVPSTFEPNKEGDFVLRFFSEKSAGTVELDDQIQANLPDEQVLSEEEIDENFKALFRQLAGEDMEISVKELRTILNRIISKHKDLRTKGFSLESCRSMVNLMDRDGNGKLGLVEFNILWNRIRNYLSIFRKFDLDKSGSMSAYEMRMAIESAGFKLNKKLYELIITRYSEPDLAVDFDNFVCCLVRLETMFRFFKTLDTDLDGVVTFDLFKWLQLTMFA
Description: Inhibition of human purified calpain 1 at 100 uM.

Test [11] has as its target T3, Proteasome Macropain subunit MB1 (Homo sapiens, UniProt P28074).
T3 sequence (P28074 whole entry): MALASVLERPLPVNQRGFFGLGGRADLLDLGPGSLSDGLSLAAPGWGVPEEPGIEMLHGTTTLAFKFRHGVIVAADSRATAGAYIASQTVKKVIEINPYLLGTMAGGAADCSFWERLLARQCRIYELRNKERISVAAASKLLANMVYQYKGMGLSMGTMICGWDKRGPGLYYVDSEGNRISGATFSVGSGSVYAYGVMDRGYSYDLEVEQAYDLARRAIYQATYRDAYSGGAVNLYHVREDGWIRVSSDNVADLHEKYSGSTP
Kind of test: Inhibition of 20S proteasome beta5 subunit in human erythrocytes using Ac-WLA-AMC as substrate by fluorescence assay. The test is classed as cell-based.

In test [12] the target is T3, Proteasome Macropain subunit MB1. Kind of test: Inhibition of 26S proteasome beta5 subunit in human Calu6 cells using Suc-LLVY-aminoluciferin as substrate after 1hr by luminescence assay. The test is classed as cell-based, Calu-6.

`CC(C)(C)CNC(=O)C[C@H](NC(=O)Cc1ccc(F)cc1)C(=O)N[C@@H](CCc1ccccc1)C(=O)NCc1ccccc1`: the CC50 in test [1] was determined as 120 nM. For `CC(C)(C)CNC(=O)C[C@H](NC(=O)CN1CCCCC1)C(=O)N[C@@H](CCc1ccccc1)C(=O)NCc1ccccc1`, the CC50 in test [1] was 180 nM. With `CC(C)(C)CNC(=O)C[C@H](NC(=O)C(=O)c1c[nH]c2ccccc12)C(=O)N[C@@H](Cc1ccncc1)C(=O)NCc1ccccc1Cl`, the CC50 in [1] was 6 nM. For `Cc1cc(C(=O)N[C@@H](CC(=O)NCC(C)(C)C)C(=O)N[C@@H](Cc2ccncc2)C(=O)NCc2ccccc2Cl)no1`, in test [1], the CC50 was found to be 210 nM. The same measure, in the same setting: then `CC(C)(C)CNC(=O)C[C@H](NC(=O)c1ccc(OCc2ccccc2)cc1)C(=O)N[C@@H](CCc1ccccc1)C(=O)NCc1ccccc1Cl`, with 4.7 nM.

Regarding `CC(C)(C)CNC(=O)C[C@H](NC(=O)C(=O)c1c[nH]c2ccccc12)C(=O)N[C@@H](CCc1ccccc1)C(=O)NCc1ccccc1Cl`, the CC50 in test [1] is 2.4 nM. Besides, the inhibition entry (in [2]; in test [3]; in test [4]; in the test listed under Homo sapiens [5]; in the test filed under Homo sapiens [6]; in test [7]) was “inactive” in each case. Also, the inhibition result (in test [8]; in test [9]; at Trypsin (Homo sapiens); in [10]) was “inactive” throughout. Consider `Cc1cc(C(=O)N[C@@H](CC(=O)NCC(C)(C)C)C(=O)N[C@@H](CCc2ccccc2)C(=O)NCc2ccccc2)no1`, for which the CC50 in test [1] is 27 nM.

As for `Cc1ccc(CNC(=O)[C@H](CCc2ccccc2)NC(=O)[C@H](Cc2nc(C(C)(C)C)no2)NC(=O)c2cc(C)on2)cc1`, the IC50 amounted to 93 nM in [11] and 1700 nM in test [12]. The CC50 in test [1] stood at 1500 nM. `Cc1ccc(CNC(=O)[C@H](CCc2ccccc2)NC(=O)[C@H](CNC(=O)CC(C)(C)C)NC(=O)CCc2ccccc2)cc1` displayed an IC50 in test [11] above 1000 nM. `Cc1ccc(CNC(=O)[C@H](CCc2ccccc2)NC(=O)[C@H](CNC(=O)CC(C)(C)C)NC(=O)c2cc(C)on2)cc1` registered an IC50 in test [11] above 1000 nM. `CC(=O)N[C@@H](CC(=O)NCC(C)(C)C)C(=O)N[C@@H](CCc1ccccc1)C(=O)NCc1ccccc1`: the CC50 in test [1] is 890 nM. Regarding `Cc1ccc(CNC(=O)[C@H](CCc2ccccc2)NC(=O)[C@H](CNC(=O)CC(C)(C)C)NC(=O)C(=O)c2c[nH]c3ccccc23)cc1`, the IC50 in test [11] was 910 nM. Take `CC(C)(C)CNC(=O)C[C@H](NC(=O)c1ccc(C(C)(C)C)cc1)C(=O)N[C@@H](CCc1ccccc1)C(=O)NCc1ccccc1`: the CC50 in test [1] amounted to 31 nM. In the case of `Cc1ccc(CNC(=O)[C@H](CCc2ccccc2)NC(=O)[C@H](CC(=O)NCC(C)C)NC(=O)c2cc(C)on2)cc1`, in test [11], the IC50 was 7.3 nM. In addition, the CC50 in [1] was 250 nM. `Cc1ccc(CNC(=O)[C@H](CCc2ccccc2)NC(=O)[C@H](CCc2ccccc2)NC(=O)[C@H](CCc2ccccc2)NC(=O)c2cnc(C)cn2)cc1`: the IC50 came to 16 nM in test [11] and 53 nM in test [12]. Besides, the CC50 in test [1] is 130 nM. On to `CC(C)C[C@H](NC(=O)[C@H](Cc1ccccc1)NC(=O)c1cnccn1)B(O)O` [BORTEZOMIB], for which the CC50 in test [1] was 5.2 nM.

As to `CC(C)(C)CNC(=O)C[C@H](NC(=O)CCc1ccccc1)C(=O)N[C@@H](CCc1ccccc1)C(=O)NCC1CC1`, the 50% inhibitory concentration (IC50) was found to be 12 nM in [11] and 360 nM in [12]. Moreover, the CC50 in [1] was 150 nM. With `CC(C)(C)CNC(=O)C[C@H](NC(=O)C(=O)c1c[nH]c2ccccc12)C(=O)N[C@@H](CCc1ccccc1)C(=O)NCc1ccccc1`, the CC50 in test [1] is 2.6 nM. With `CCCNC(=O)C[C@H](NC(=O)c1cc(C)on1)C(=O)N[C@@H](CCc1ccccc1)C(=O)NCc1ccc(C)cc1`, in [11], inhibition was half-maximal at 160 nM (IC50). Consider `CC(C)(C)CNC(=O)C[C@H](NC(=O)Cc1ccc(F)cc1)C(=O)N[C@@H](CCc1ccccc1)C(=O)NCc1ccccc1Cl`, for which, in test [1], the CC50 was 94 nM. Same read-out and setting: then `Cc1cc(C(=O)N[C@@H](CC(=O)NCC(C)(C)C)C(=O)N[C@@H](Cc2cccnc2)C(=O)NCc2ccccc2Cl)no1`, with 170 nM; and `CC(C)(C)CNC(=O)C[C@H](NC(=O)CCc1ccccc1)C(=O)N[C@@H](CCc1ccccc1)C(=O)NCc1ccccc1`, with 89 nM; and `CC(C)(C)CNC(=O)C[C@H](NC(=O)CCc1ccccc1)C(=O)N[C@@H](CCc1ccccc1)C(=O)NCc1ccccc1Cl`, with 20 nM. Turning to `C[C@H](NC(=O)[C@H](CC(=O)NCC(C)(C)C)NC(=O)CCc1ccccc1)C(=O)NCc1ccccc1Cl`, the CC50 in test [1] was determined as 39 nM. `CC(C)(C)CNC(=O)C[C@H](NC(=O)CCc1ccccc1)C(=O)N[C@@H](Cc1cccnc1)C(=O)NCc1ccccc1Cl`: the CC50 in test [1] turned out to be 61 nM. On the same count and under the same terms, then `Cc1cc(C(=O)N[C@@H](CC(=O)NCC(C)(C)C)C(=O)N[C@@H](C)C(=O)NCc2ccccc2Cl)no1`, with 200 nM; and `CC(C)(C)CNC(=O)C[C@H](NC(=O)C(C)(C)C)C(=O)N[C@@H](CCc1ccccc1)C(=O)NCc1ccccc1`, with 210 nM. Turning to `CC(C)(C)CNC(=O)C[C@H](NC(=O)c1ccc(OCc2ccccc2)cc1)C(=O)N[C@@H](CCc1ccccc1)C(=O)NCc1ccccc1`, in test [1], the CC50 was 10 nM. On the same count and under the same terms, the figure for `CC(C)C[C@H](NC(=O)CNC(=O)c1cc(Cl)ccc1Cl)B(O)O` [IXAZOMIB] is 14 nM. `Cc1cc(C(=O)N[C@@H](CC(=O)NCC(C)(C)C)C(=O)N[C@@H](Cc2ccc(Cl)cc2)C(=O)NCc2ccccc2Cl)no1` showed an IC50 in [11] of 16 nM. For the same compound, the CC50 in test [1] worked out at 1100 nM. As for `Cc1ccc(CNC(=O)[C@H](CCc2ccccc2)NC(=O)[C@H](Cc2nc(C(C)(C)C)no2)NC(=O)C(=O)c2c[nH]c3ccccc23)cc1`, the IC50 is 11.6 nM in test [11] and 30 nM in test [12]. Also, the CC50 in test [1] stood at 36 nM. For `Cc1cc(C(=O)N[C@@H](CC(=O)NCC(C)(C)C)C(=O)N[C@@H](CCc2ccccc2)C(=O)NCc2ccccc2Cl)no1`, the CC50 in test [1] was 41 nM. Also, the inhibition entry (in test [2]; in [3]; in test [4]; in the test filed under Homo sapiens [5]; in the test filed under Homo sapiens [6]; in [7]) was “inactive” in each case. The inhibition result (in [8]; in test [9]; at Trypsin (Homo sapiens); in test [10]) was “inactive” in each case.

The IC50 is the concentration that inhibits the measured activity by half. A lower IC50 goes with higher potency.
